The test system of assay [1] is Klebsiella pneumoniae 20. As to the kind of experiment: In vitro antibacterial activity, two-fold agar-plate dilution method (MIC), Klebsiella pneumoniae 20. In kind it is cell-based. The conditions noted are these: heart infusion agar, 37° C., 20 hours, read-out: MIC (minimal inhibitory concentration). As for the experimental part: (§1) 1. In vitro antibacterial activity: (1) Test method: In vitro antibacterial activity was determined by the two-fold agar-plate dilution method as described below. One loopful of an overnight culture of each test strain in Trypticase soy broth was streaked on heart infusion agar (HI-agar) containing graded concentration of the test compound and incubated at 37° C. for 20 hours. The minimal inhibitory concentration (MIC) was expressed in μg/ml.

In assay [2] the test system is Proteus mirabilis 18. As to the kind of experiment: In vitro antibacterial activity, two-fold agar-plate dilution method (MIC), Proteus mirabilis 18. In kind it is cell-based. The conditions noted are these: heart infusion agar, 37° C., 20 hours, read-out: MIC (minimal inhibitory concentration). As to the method: as §1

Structures are written as SMILES. Values after ≈ are worked out from the molar mass of the structure shown.

Regarding `CO/N=C(\C(=O)NC1C(=O)N2C(C(=O)O)C(=COC(C)=O)CSC12)c1csc(N)n1` (stereo not drawn) [Test compound, 7-[2-(2-Aminothiazol-4-yl)-2-methoxyiminoacetamido]-3-acetoxymethylenecepham-4-carboxylic acid (syn isomer)], the MIC in assay [1] and in assay [2] was 6.25 µg/mL (≈ 13.7 µM) throughout.

The record behind these values is US4363807A, “Cepham compounds” (Fujisawa Pharmaceutical Company, Limited, priority 1978, dated 1982).
